US4454158A, “Allyl amine MAO inhibitors” (Merrell Toraude et Compagnie, priority 1981, dated 1984)
pIC50: −log10 of the molar value. Where two headings read alike, the source gives them in different places.

How the values were obtained:
MAO [1] = assay: Inhibition of MAO - In vitro (14C p-tyramine substrate, partially purified rat brain mitochondria); type: biochemical; conditions: tested as hydrochloride salt, read-out: IC50 (MAO inhibitory activity - In vitro)
Description: (A) The ability of a compound of Formula I or II to inhibit MAO can be determined in vitro by the method of A. Christmas et al, Br. J. Pharmacol. 45, 490 (1972) in partially purified mitochondria from rat brain using ^14 C p-tyramine as the substrate.

MAO [2] = assay: Time-dependence and reversibility of MAO inhibition (rat brain mitochondria, 14C p-tyramine); type: biochemical; conditions: phosphate buffer pH 7.2, 14C p-tyramine
Protocol: (B) The compounds of Formula I or II can be tested to determine whether or not the MAO inhibition follows time-dependent kinetics by the procedure described below:
Mitochondria are prepared from rat brain by homogenation in phosphate buffer (0.1 M, pH 7.2) followed by differential centrifugation. The mitochondria are suspended in the same buffer, the test compound is added at the desired concentration, and the system is incubated. At different time intervals, aliquots are taken and MAO activity is measured using ^14 C p-tyramine (a mixed substrate) as the substrate (See A. Christmas, et al, supra). When the compounds shown in Table I were tested according to the above-described procedure, the MAO inhibitory activity increased as a function of time of incubation. The initial rate of decrease of activity increased with increasing concentration of inhibitor.

depression = conditions: literature; cited from earlier work
[3] = test system: heart rate response to p-tyramine; assay: Cheese effect: potentiation of heart-rate response to p-tyramine in rats; conditions: rat, dose 0.1 (iv), p-tyramine i.d.
Protocol: (§1) The following test procedure can be employed to assess the potential of a compound of Formula I or II for producing the "cheese effect":
(§2) Rats are administered an intravenous injection of the test compound at various dosage levels, and 30 minutes later the rats are challenged with several intravenous or intraduodenal dodes of p-tyramine. The heart rate response is measured.

[4] = test system: heart rate response to p-tyramine; conditions: rat, in vivo, iv
Protocol: as §1, §2

MAO [5] = assay: Inhibition of MAO - Ex vivo, rat (14C p-tyramine substrate); type: in vivo; conditions: for % Inhibition of MAO - Brain: 18 hr
Protocol: The ability of a compound of Formula I or II to inhibit MAO can be determined ex vivo by the following procedure:
The test compound is administered intraperitoneally (ip), intravenously (iv), or orally (po) to rats or mice and the animals are killed at various times after treatment. […] MAO activity is determined in the homogenates using ^14 C p-tyramine, as the substrate. […] Selectivity can be determined by repeating the above-described test using either ^14 C 5-hydroxytryptamine (for MAO-A) or ^14 C phenethylamine (for MAO-B) as the substrate for determining the % inhibition

MAO-B versus MAO-A = conditions: literature figure; cited from earlier work
MAO-A and MAO-B = conditions: literature, cited from earlier work

Compound | pIC50 (MAO [1]) | time-dependent inhibitory kinetics (MAO [2]) | clinical effectiveness as antidepressant (in words) (depression) | Potentiation of heart-rate response to p-tyramine [3] | Potentiation of heart-rate response to p-tyramine [4] | % Inhibition of MAO - Duodenum (MAO [5]; 0.1 mg/kg iv, 2 hr) | % Inhibition of MAO - Heart (MAO [5]; 0.1 mg/kg iv, 2 hr) | % Inhibition of MAO - Brain (MAO [5]; 1.0 mg/kg po) | % Inhibition of MAO - Brain (MAO [5]; 5.0 mg/kg po) | Selectivity (ratio of inhibitory activity against MAO-B versus MAO-A) (MAO-B versus MAO-A) | preferential inhibition of MAO-A or MAO-B (in words) (MAO-A and MAO-B) | dose-dependence of MAO selectivity (in words) (MAO-A and MAO-B; lower vs higher dosages)
NC/C(=C\Cl)c1ccccc1 [(Z)-2-phenyl-3-chloroallylamine, (Z)-2-Phenyl-3-chloroallylamine] | 3.30 | did not show time-dependent inhibitory kinetics |  |  |  |  |  |  |  |  |  | 
C#CCN(C)CCCOc1ccc(Cl)cc1Cl [clorgyline, reference compound] | 7.00 |  | clinically effective antidepressant agents | 5.6 fold | 5.2 fold | 87% | 84% | 20% | 64% |  |  | 
C#CCN(C)Cc1ccccc1 [pargyline] | 5.70 |  | clinically effective antidepressant agents |  |  |  |  |  |  | 10 | MAO-B is preferentially inhibited | selective inhibitors at lower dosages, but are not selective inhibitors at higher dosages
